Reference: patent publication US20250040539A1, “COMPOSITION COMPRISING AN ANTIMICROBIAL AGENT AND A CARBOXAMIDE” (BASF SE, priority 2021, published 2025)

Tested on: bacterial mix: Escherichia coli DSM 1576, Alcaligenes faecalis DSM 13644, Pseudomonas aeruginosa ATCC 15442, Staphylococcus aureus ATCC 6538, Burkholderia …
Test: Preservative activity of a basic composition (10% PG in water, pH 7) with 1,2-benzisothiazol-3(2H)-one (BIT) against bacterial contamination (Example 2.3)
Format: cell-based
Conditions: 10% PG + 0.004% BIT, no amide (Comparative 2); day 7
Description: An aqueous composition of pH 7 comprising 10% by weight of propyleneglycol (PG) as organic solvent, 0.004% by weight of 1,2-benzisothiazol-3(2H)-one (BIT) as antimicrobial and 0.04% by weight of the amide listed in the below table was tested for its preserving activity against bacterial contamination (the percentages are weight percent and relate to the total weight of the composition). For this purpose, the samples were contaminated with a bacterial mix consisting of: • Escherichia coli DSM 1576 • Alcaligenes faecalis DSM 13644 • Pseudomonas aeruginosa ATCC 15442 • Staphylococcus aureus ATCC 6538 • Burkholderia cepacia DSM 7288 • Pseudomonas putida DSM 12735
The samples were inoculated with the bacterial mix at day 0 to obtain 10E+06 to 10E+07 CFU/ml inoculation in the test sample and stored at 25° C. for 7 days.
CFU was determined at day 7.
Any CFU value at day 7 (d7) obtained with a sample according to the invention containing BIT and amide (10% PG+0.004% BIT+Amide in water) lower than the respective value of the “comparative 2” example (10% by weight of propyleneglycol+0.004% by weight of 1,2-benzisothiazol-3(2H)-one (BIT) in water) indicates a better performance.

O=c1[nH]sc2ccccc12 [BIT, 1,2-benzisothiazol-3(2H)-one, reference compound]
d7 [CFU/ml]: >100,000 CFU/ml
